Measured values: US20260364215A1, “Radiopharmaceutical Compositions Targeting Ephrin Type-A Receptor 2 and Uses Thereof” (PeptiDream Inc., priority 2022, published 2026)
Numbered stars: 1 amine (or outer) side, 2 acyl side, 3 side chain; on linkers, the order of the positions; unused ones are H or OH. Bridge positions count the residues as written; N and C are the ends. Square brackets hold non-standard residues; d marks the D form. Side chains are listed from the residue outwards. Peptide text beside a SMILES is read from it. * marks the point of attachment. DOTA(Lu) = O=C1CN2CCN3CCN(CC(=O)*)CCN(CC2)CC(=O)[O][Lu]([O]1)[O]C(=O)C3; DOTA = O=C(O)CN1CCN(CC(=O)O)CCN(CC(=O)*)CCN(CC(=O)O)CC1; Trp(1-Me,7-Cl) = Cn1cc(C[C@H](N)C(=O)O)c2cccc(Cl)c21; dPhe(3-CONH2) = NC(=O)c1cccc(C[C@@H](N)C(=O)O)c1; Piperazinyl(4-CH2COOH) = O=C(O)CN1CCN(*)CC1; Trp(1-Me) = Cn1cc(C[C@H](N)C(=O)O)c2ccccc21; NMe3Pal = CN[C@@H](Cc1cccnc1)C(=O)O; hArg = N=C(N)NCCCC[C@H](N)C(=O)O; Gly(cBu) = N[C@H](C(=O)O)C1CCC1; NMeE = CN[C@@H](CCC(=O)O)C(=O)O; Aad = N[C@@H](CCCC(=O)O)C(=O)O; CO = O=C([*:1])[*:2]

Assays:
[1] = Plasma stability (% remaining and T1/2 of test compound in human plasma; Table C1); format: in vitro ADME
Description: (§1) The % remaining of test compound after incubation in plasma was calculated using the following equation:
(§2) % Remaining=100×(PAR(t)/PAR(t0)), where PAR is the peak area ratio of analyte versus internal standard (IS)

[2] = molecular target: T1, EphA2 (Biotin-Avi-His-EphA2; Fc-EphA2 where the peptide had a biotin) (Homo sapiens, UniProt P29317); assay: Surface plasmon resonance (SPR) peptide binding, Biacore 8K, immobilized EphA2, single cycle kinetics (Example C7); details: 25 °C, Langmuir 1:1
T1 construct: His; purchased SinoBiologicals 13926-H27H-B
T1 sequence (P29317 24-534 limits assumed): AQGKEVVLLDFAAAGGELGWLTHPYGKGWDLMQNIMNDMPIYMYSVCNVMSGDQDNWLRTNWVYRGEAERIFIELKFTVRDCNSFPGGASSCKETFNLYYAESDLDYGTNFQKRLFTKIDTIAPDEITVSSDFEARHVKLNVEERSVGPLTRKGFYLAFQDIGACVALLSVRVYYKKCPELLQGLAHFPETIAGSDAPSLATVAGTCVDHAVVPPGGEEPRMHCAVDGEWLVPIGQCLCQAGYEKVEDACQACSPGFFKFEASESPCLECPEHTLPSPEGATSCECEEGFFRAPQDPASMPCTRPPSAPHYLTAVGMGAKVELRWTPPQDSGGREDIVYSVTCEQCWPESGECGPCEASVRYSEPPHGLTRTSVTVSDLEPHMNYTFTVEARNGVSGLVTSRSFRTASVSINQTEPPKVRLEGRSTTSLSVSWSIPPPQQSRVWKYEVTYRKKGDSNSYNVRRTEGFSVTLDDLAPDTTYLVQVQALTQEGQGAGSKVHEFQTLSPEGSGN
Description: Example C7. Surface Plasmon Resonance (SPR)
For analysis of peptide binding, a Biacore 8K instrument was used utilizing a SA chip. Biotin-Avi-His-EphA2 (SinoBiologicals, 13926-H27H-B) was immobilized on the chip using streptavidin-biotin chemistry at 25 °C in HBS-P+ buffer (10 mM HEPES, 150 mM NaCl, 0.05% Tween-20, pH 7.4) to a level of 1000-2000 RU (dependent on the analyte molecular weight). […] A dilution series of peptides was prepared in this buffer with a final DMSO concentration of 0.1% with a top peptide concentration between 10-100 nM and 9 further 2-fold dilutions. The SPR analysis was run at 25 °C at a flow rate of 30 μL/min in HBS-P+ with 0.1% DMSO running buffer and with a 120 second association and 1,200 second dissociation using single cycle kinetics methodology. All data was analyzed using Biacore Insight Evaluation Software version 4. Data was fitted using a Langmuir 1:1 binding model.

[3] = molecular target: T2, Recombinant Human EphA2 Fc Protein (Homo sapiens, UniProt P29317); assay: Interaction analysis (kinetics, KD) of peptides and conjugates against EphA2 by SPR, Biacore T200, single-cycle kinetics (Examples B15 and B22); format: binding; details: conjugates, Biacore T200 according to Example B15, Table B16; read-out: SPR Kd
T2 construct: purchased Elabscience
T2 sequence (P29317 24-534 limits assumed): as above
Outline: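 Biacore T200 SPR with Fc-tagged human EphA2 captured via anti-human antibody; running buffer HBS-P+ pH 7.4 with 1% DMSO, 25 °C. Five serial dilutions of peptide or conjugate run by single-cycle kinetics; KD from ka and kd after baseline subtraction.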

[4] = Plasma stability (% remaining of test compound in CD-1 (ICR) mouse plasma at 37 °C; Example C1); format: in vitro ADME
Description: Example C1. Plasma Stability
The pooled frozen CD-1 (ICR) mouse plasma was thawed in a water bath at 37 °C prior to experiment. Plasma was centrifuged at 4000 rpm for 5 min and the clots were removed if any. pH was adjusted to 7.4±0.1 if required.
Plasma (98 μL) and test compounds (2 μL, 100 μM, in DMSO) or reference compound propantheline bromide (2 μL, 100 μM in 40% v/v MeOH/H2O) were added to the individual wells of a 96-well microtiter plate in duplicate. The plate was incubated at 37 °C. During the incubation, aliquots were withdrawn at 0, 10, 30, 60, 120, and 300 minutes. 100 μL 4% H3PO4 and 800 μL of stop solution (200 ng/mL tolbutamide and 200 ng/mL labetalol in 100% CH3CN) were added to precipitate unwanted proteins. After mixing thoroughly, the quenched aliquots were centrifuged at 4,000 rpm for 20 min. Aliquots (100 μL) of supernatant were transferred to a new plate. The samples were shaken at 800 rpm for 10 min before performing LC-MS/MS analysis.
The analytes were detected by a multiple reaction monitoring method using a SCIEX Triple Quad 6500+ system equipped with an ACQUITY UPLC HSS T3 column (100 Å, 1.8 μm, 2.1 mm×30 mm). Mobile phase A: water with 0.1% formic acid; Mobile phase B: CH3CN with 0.1% formic acid.
as §1, §2

SMILES	half-life [1] [h]	% Remaining Human ([1]; 0 min) [%]	remaining at 2 h ([1]; 120 min) [%]	KD [2] [M⁻¹]	Kd [3] [nM]	% Remaining Mouse ([4]; 0 min) [%]	remaining at 2 h, 2 µM ([4]; pH 7.4, 120 min) [%]	half-life at 2 µM ([4]; pH 7.4, read-out: T1/2 (min) Mouse) [min]
CC(C)C[C@@H]1NC(=O)[C@H](CC(N)=O)NC(=O)[C@H](Cc2cccnc2)N(C)C(=O)[C@@H](C)NC(=O)CSC[C@@H](C(=O)N[C@H](CCCCNC(=O)CN2CCN3CCN4CCN(CC2)CC(=O)[O][Lu]([O]C(=O)C3)[O]C(=O)C4)C(N)=O)NC(=O)[C@H](CCCC(N)=O)NC(=O)[C@H]([C@@H](C)O)NC(=O)[C@H](Cc2cn(C)c3ccccc23)NC(=O)[C@H](CCCCNC(=O)N2CCN(CC(=O)O)CC2)NC(=O)[C@H](Cc2cn(C)c3ccccc23)NC(=O)[C@H](CCC(=O)O)N(C)C(=O)[C@H](CCCC(N)=O)NC1=O [PDC_EphA2-00007196-C302] ({CH2CO}-[dA][NMe3Pal]NL[Aad](NH2)[NMeE][Trp(1-Me)]K([CO-Piperazinyl(4-CH2COOH)])[Trp(1-Me)]T[Aad](NH2)C[dK](DOTA(Lu))-NH2; thioether N-12)	> 4.82	100.0	96.3	3.74e-10	< 1	100.0	99.4	> 289
CC(C)C[C@@H]1NC(=O)[C@H](CC(N)=O)NC(=O)[C@H](Cc2cccnc2)N(C)C(=O)[C@@H](C)NC(=O)CSC[C@@H](C(=O)N[C@H](CCCCNC(=O)CN2CCN(CC(=O)O)CCN(CC(=O)O)CCN(CC(=O)O)CC2)C(N)=O)NC(=O)[C@H](CCCCNC(=N)N)NC(=O)[C@H]([C@@H](C)O)NC(=O)[C@H](Cc2cn(C)c3ccccc23)NC(=O)[C@H](CCCCNC(=O)N2CCN(CC(=O)O)CC2)NC(=O)[C@H](Cc2cn(C)c3ccccc23)NC(=O)[C@H](CCC(=O)O)N(C)C(=O)[C@H](CCCC(N)=O)NC1=O.[Lu+3] [PDC_EphA2-00008010-C302] ({CH2CO}-[dA][NMe3Pal]NL[Aad](NH2)[NMeE][Trp(1-Me)]K([CO-Piperazinyl(4-CH2COOH)])[Trp(1-Me)]T[hArg]C[dK](DOTA)-NH2; thioether N-12)				2.11e-10	< 1			
C[C@@H](O)[C@@H]1NC(=O)[C@H](Cc2cn(C)c3ccccc23)NC(=O)[C@H](CCCCNC(=O)N2CCN(CC(=O)O)CC2)NC(=O)[C@H](Cc2cn(C)c3c(Cl)cccc23)NC(=O)[C@H](CCC(=O)O)N(C)C(=O)[C@H](CCCC(N)=O)NC(=O)[C@H](C2CCC2)NC(=O)[C@H](CC(N)=O)NC(=O)[C@H](Cc2cccnc2)N(C)C(=O)[C@@H](Cc2cccc(C(N)=O)c2)NC(=O)CSC[C@@H](C(=O)N[C@H](CCCCNC(=O)CN2CCN(CC(=O)O)CCN(CC(=O)O)CCN(CC(=O)O)CC2)C(N)=O)NC(=O)[C@H](CCCC(N)=O)NC1=O.[Lu+3] [PDC_EphA2-00019440-C302] ({CH2CO}-[dPhe(3-CONH2)][NMe3Pal]N[Gly(cBu)][Aad](NH2)[NMeE][Trp(1-Me,7-Cl)]K([CO-Piperazinyl(4-CH2COOH)])[Trp(1-Me)]T[Aad](NH2)C[dK](DOTA)-NH2; thioether N-12)				8.18e-11	< 1			
C[C@@H](O)[C@@H]1NC(=O)[C@H](Cc2cn(C)c3ccccc23)NC(=O)[C@H](CCCCNC(=O)N2CCN(CC(=O)O)CC2)NC(=O)[C@H](Cc2cn(C)c3c(Cl)cccc23)NC(=O)[C@H](CCC(=O)O)N(C)C(=O)[C@H](CCCC(N)=O)NC(=O)[C@H](C2CCC2)NC(=O)[C@H](CC(N)=O)NC(=O)[C@H](Cc2cccnc2)N(C)C(=O)[C@@H](Cc2cccc(C(N)=O)c2)NC(=O)CSC[C@@H](C(=O)N[C@H](CCCCNC(=O)CN2CCN(CC(=O)O)CCN(CC(=O)O)CCN(CC(=O)O)CC2)C(N)=O)NC(=O)[C@H](CCCCNC(=N)N)NC1=O.[Lu+3] [PDC_EphA2-00019443-C302] ({CH2CO}-[dPhe(3-CONH2)][NMe3Pal]N[Gly(cBu)][Aad](NH2)[NMeE][Trp(1-Me,7-Cl)]K([CO-Piperazinyl(4-CH2COOH)])[Trp(1-Me)]T[hArg]C[dK](DOTA)-NH2; thioether N-12)				2.7e-11	< 1			
